Molecular target: T1, Toll-like receptor 7 (Homo sapiens, UniProt Q9NYK1)
T1 sequence (Q9NYK1 whole entry): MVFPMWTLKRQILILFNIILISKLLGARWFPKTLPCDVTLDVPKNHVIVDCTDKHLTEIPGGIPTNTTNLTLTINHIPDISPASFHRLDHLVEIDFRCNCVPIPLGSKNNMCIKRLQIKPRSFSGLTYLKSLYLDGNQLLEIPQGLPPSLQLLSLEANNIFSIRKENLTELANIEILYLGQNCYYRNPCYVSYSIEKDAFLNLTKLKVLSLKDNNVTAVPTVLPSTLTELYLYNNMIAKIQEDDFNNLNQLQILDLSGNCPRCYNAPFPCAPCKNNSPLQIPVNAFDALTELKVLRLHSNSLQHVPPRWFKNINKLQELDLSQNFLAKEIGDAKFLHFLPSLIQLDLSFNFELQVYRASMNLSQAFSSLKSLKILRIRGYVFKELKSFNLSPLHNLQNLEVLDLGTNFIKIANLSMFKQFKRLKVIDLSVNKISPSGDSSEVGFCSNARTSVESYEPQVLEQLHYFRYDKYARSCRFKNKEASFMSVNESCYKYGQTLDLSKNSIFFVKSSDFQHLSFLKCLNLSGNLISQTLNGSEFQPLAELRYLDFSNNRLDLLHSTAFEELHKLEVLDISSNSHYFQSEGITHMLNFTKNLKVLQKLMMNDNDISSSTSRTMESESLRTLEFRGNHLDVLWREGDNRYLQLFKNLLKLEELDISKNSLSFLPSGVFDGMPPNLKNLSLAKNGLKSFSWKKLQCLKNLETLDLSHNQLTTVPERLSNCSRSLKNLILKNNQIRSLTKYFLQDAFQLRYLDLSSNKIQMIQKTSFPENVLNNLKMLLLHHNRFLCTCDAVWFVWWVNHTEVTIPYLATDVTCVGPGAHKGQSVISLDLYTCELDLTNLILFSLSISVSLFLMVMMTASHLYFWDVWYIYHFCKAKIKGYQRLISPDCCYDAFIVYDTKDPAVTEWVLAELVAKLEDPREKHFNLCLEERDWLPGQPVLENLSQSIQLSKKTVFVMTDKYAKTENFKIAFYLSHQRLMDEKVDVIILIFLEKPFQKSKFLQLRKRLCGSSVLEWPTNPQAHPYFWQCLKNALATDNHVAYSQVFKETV
Assay: HEK TLR7 Assay: HEK-Blue TLR7 cells were purchased from Invivogen (San Diego, Calif.). The following description was taken from the product information sheet."HEK-Blue hTLR7 cells are designed for studying the stimulation of human TLR7 (hTLR7) by monitoring the activation of NF-kB. HEK-Blue hTLR7 cells were obtained by co-transfection of the hTLR7 gene and an optimized secreted embryonic alkaline phosphatase (SEAP) reporter gene into HEK293 cells. The SEAP reporter gene is placed under the control of the IFN-b minimal promoter fused to five NF-kB and AP-1-binding sites. Stimulation with a TLR7 ligand activates NF-kB and AP-1 which induce the production of SEAP, which is detected by the HEK-Blue™ Detection cell culture medium."A typical assay protocol involved the following steps:1. Cells were cultured according to the product information sheet.2. 10 mM compound stock in DMSO were first diluted to 3 mM and then 3-fold serially diluted using DMSO to afford a 10-pt dilution.3. 3 μl of the diluted DMSO were added to 57 μl HEK-Blue Detection media for a further 20-fold dilution.4. 10 μl of the diluted compound in assay media were added into 40 μl cell culture (in HEK-Blue™ Detection media) in 384-well plate. Final cell concentration=8,000 cells per well.5. The plates were incubated at 37° C. in 5% CO2 for 16 h. SEAP was determined using a spectrophotometer at 620-655 nm.

EC50, < 100 nM:
CCCC[C@@H](CCSC)Nc1nc(N)nc(C)c1Cc1cc(Cc2nn[nH]n2)ccc1OC
CCCC[C@@H](CCS(C)(=O)=O)Nc1nc(N)nc(C)c1Cc1cc(Cc2nn[nH]n2)ccc1OC
CCCC[C@@H](CCSC)Nc1nc(N)nc(C)c1Cc1cc(C(=O)NCCCP(=O)(O)O)ccc1OC
